In this test the target is T1, recombinant IL4I1 (Homo sapiens, UniProt Q96RQ9).
T1 construct: purchased R&D Systems 5684-AO-020
T1 sequence (Q96RQ9 22-567): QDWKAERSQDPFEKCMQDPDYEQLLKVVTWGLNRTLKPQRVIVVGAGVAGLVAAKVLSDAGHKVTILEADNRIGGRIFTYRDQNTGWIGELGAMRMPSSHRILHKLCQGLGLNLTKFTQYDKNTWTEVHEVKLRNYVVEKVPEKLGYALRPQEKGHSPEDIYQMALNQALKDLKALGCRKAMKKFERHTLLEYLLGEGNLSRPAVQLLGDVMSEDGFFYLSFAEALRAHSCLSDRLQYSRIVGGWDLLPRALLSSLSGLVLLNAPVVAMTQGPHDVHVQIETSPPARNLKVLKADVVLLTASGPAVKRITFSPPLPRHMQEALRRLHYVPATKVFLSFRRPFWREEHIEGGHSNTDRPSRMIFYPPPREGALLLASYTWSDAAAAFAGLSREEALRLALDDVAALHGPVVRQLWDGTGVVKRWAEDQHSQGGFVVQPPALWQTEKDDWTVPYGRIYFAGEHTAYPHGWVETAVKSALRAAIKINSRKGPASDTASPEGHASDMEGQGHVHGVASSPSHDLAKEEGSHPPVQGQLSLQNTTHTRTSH
Nature of the test: IL4I1 Enzymatic Assay (Amplex Red/HRP coupled detection of H2O2, fluorescence). The class given is biochemical. The note with it: 1 nM recombinant IL4I1; four-hour pre-incubation with compound; 1 mM each Phe, Tyr, Trp; ten-point titration. Put shortly:
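Recombinant IL4I1 (1 nM final) pre-incubated 4 h at ambient temperature with compound (0.5% DMSO) in 50 mM Hepes pH 7.0, 0.005% Tween20; reaction started with 1 mM each Phe/Tyr/Trp plus excess Amplex Red/HRP, run 120 min. H2O2 read as resorufin fluorescence; EC50 from 10-point four-parameter fit.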
The EC50 is the concentration that produces a half-maximal response. For the compound `COCCOCCn1cc(C(=O)NCc2nnc(-c3ccccc3)s2)nn1` [Example 85, 1-(2-(2-methoxyethoxy)ethyl)-N-((5-phenyl-1,3,4-thiadiazol-2-yl)methyl)-1H-1,2,3-triazole-4-carboxamide], the EC50 turned out to be 15 nM. Take `CC(C)(C)Cn1cc(C(=O)NCc2nnc(-c3ccccc3)s2)nn1` [Example 86, 1-neopentyl-N-((5-phenyl-1,3,4-thiadiazol-2-yl)methyl)-1H-1,2,3-triazole-4-carboxamide]: the EC50 came to 42 nM.

Consider `N#CC1(Cn2cc(C(=O)NCc3nnc(-c4ccccc4)s3)nn2)CC1` [Example 87, 1-((1-cyanocyclopropyl)methyl)-N-((5-phenyl-1,3,4-thiadiazol-2-yl)methyl)-1H-1,2,3-triazole-4-carboxamide], for which the EC50 came to 18 nM. Regarding `CC(C)Cn1cc(C(=O)NCc2nnc(-c3ccccc3)s2)nn1` [Example 88, 1-isobutyl-N-((5-phenyl-1,3,4-thiadiazol-2-yl)methyl)-1H-1,2,3-triazole-4-carboxamide], the EC50 turned out to be 13 nM. Under `CCC(C)Cn1cc(C(=O)NCc2nnc(-c3ccccc3)s2)nn1` (stereo not shown) [Example 89, 1-(2-methylbutyl)-N-((5-phenyl-1,3,4-thiadiazol-2-yl)methyl)-1H-1,2,3-triazole-4-carboxamide] stands 37 nM. For `N#CCCCCn1cc(C(=O)NCc2nnc(-c3ccccc3)s2)nn1` [Example 90, 1-(4-cyanobutyl)-N-((5-phenyl-1,3,4-thiadiazol-2-yl)methyl)-1H-1,2,3-triazole-4-carboxamide], the EC50 turned out to be 27 nM. As to `CCOCCn1cc(C(=O)NCc2nnc(-c3ccccc3)s2)nn1` [Example 91, 1-(2-ethoxyethyl)-N-((5-phenyl-1,3,4-thiadiazol-2-yl)methyl)-1H-1,2,3-triazole-4-carboxamide], the EC50 was 27 nM. Under `CCCn1cc(C(=O)NCc2nnc(-c3ccccc3)s2)nn1` [Example 92, N-((5-phenyl-1,3,4-thiadiazol-2-yl)methyl)-1-propyl-1H-1,2,3-triazole-4-carboxamide] stands 3 nM; under `O=C(NCc1nnc(-c2ccccc2)s1)c1cn(CCCF)nn1` [Example 93, 1-(3-fluoropropyl)-N-((5-phenyl-1,3,4-thiadiazol-2-yl)methyl)-1H-1,2,3-triazole-4-carboxamide], 8 nM. In the case of `CC(C)CCn1cc(C(=O)NCc2nnc(-c3ccccc3)s2)nn1` [Example 94, 1-isopentyl-N-((5-phenyl-1,3,4-thiadiazol-2-yl)methyl)-1H-1,2,3-triazole-4-carboxamide], the concentration for a half-maximal effect (EC50) came out at 68 nM. Under `O=C(NCc1nnc(-c2ccccc2)s1)c1cn(C2CCCCC2)nn1` [Example 95, 1-cyclohexyl-N-((5-phenyl-1,3,4-thiadiazol-2-yl)methyl)-1H-1,2,3-triazole-4-carboxamide] stands 189 nM.

Consider `COCCCn1cc(C(=O)NCc2nnc(-c3ccccc3)s2)nn1` [Example 96, 1-(3-methoxypropyl)-N-((5-phenyl-1,3,4-thiadiazol-2-yl)methyl)-1H-1,2,3-triazole-4-carboxamide], for which the EC50 is 16 nM. With `CC1(O)CCC(n2cc(C(=O)NCc3nnc(-c4ccccc4)s3)nn2)CC1` (stereo not shown) [Example 97, 1-(4-hydroxy-4-methylcyclohexyl)-N-((5-phenyl-1,3,4-thiadiazol-2-yl)methyl)-1H-1,2,3-triazole-4-carboxamide] the figure was 486 nM. In the case of `O=C(NCc1nnc(-c2ccccc2)s1)c1cn(CCCC(F)(F)F)nn1` [Example 98, N-((5-phenyl-1,3,4-thiadiazol-2-yl)methyl)-1-(4,4,4-trifluorobutyl)-1H-1,2,3-triazole-4-carboxamide], the EC50 worked out at 272 nM. Under `O=C(NCc1nnc(-c2ccccc2)s1)c1cn(Cc2ccncc2)nn1` [Example 99, N-((5-phenyl-1,3,4-thiadiazol-2-yl)methyl)-1-(pyridin-4-ylmethyl)-1H-1,2,3-triazole-4-carboxamide] stands 21 nM.

As for `O=C(NCc1nnc(-c2ccccc2)s1)c1cn(Cc2ccccn2)nn1` [Example 101, N-((5-phenyl-1,3,4-thiadiazol-2-yl)methyl)-1-(pyridin-2-ylmethyl)-1H-1,2,3-triazole-4-carboxamide], the EC50 is 19 nM. With `CC(=O)N1CC(n2cc(C(=O)NCc3nnc(-c4ccccc4)s3)nn2)C1` [Example 102, 1-(1-acetylazetidin-3-yl)-N-((5-phenyl-1,3,4-thiadiazol-2-yl)methyl)-1H-1,2,3-triazole-4-carboxamide] the figure was 296 nM; with `O=C(NCc1nnc(-c2ccccc2)s1)c1cn(C2CN(C(=O)C3CC3)C2)nn1` [Example 103, 1-(1-(cyclopropanecarbonyl)azetidin-3-yl)-N-((5-phenyl-1,3,4-thiadiazol-2-yl)methyl)-1H-1,2,3-triazole-4-carboxamide], 542 nM.

As to `Cc1ccc(-n2cc(C(=O)NCc3nnc(-c4ccc(F)cc4F)s3)nn2)c(C)n1` [Example 105, N-((5-(2,4-difluorophenyl)-1,3,4-thiadiazol-2-yl)methyl)-1-(2,6-dimethylpyridin-3-yl)-1H-1,2,3-triazole-4-carboxamide], the EC50 worked out at 909 nM. Under `Cc1ccc(-n2cc(C(=O)NCc3nnc(-c4ccc(F)c(F)c4)s3)nn2)c(C)n1` [Example 106, N-((5-(3,4-difluorophenyl)-1,3,4-thiadiazol-2-yl)methyl)-1-(2,6-dimethylpyridin-3-yl)-1H-1,2,3-triazole-4-carboxamide] stands 695 nM. Under `Cc1ccc(-n2cc(C(=O)NCc3nnc(-c4ccccc4C)s3)nn2)c(C)n1` [Example 107, 1-(2,6-dimethylpyridin-3-yl)-N-((5-(o-tolyl)-1,3,4-thiadiazol-2-yl)methyl)-1H-1,2,3-triazole-4-carboxamide] stands 58 nM; under `Cc1ccc(-n2cc(C(=O)NCc3nnc(-c4cc(F)ccc4F)s3)nn2)c(C)n1` [Example 108, N-((5-(2,5-difluorophenyl)-1,3,4-thiadiazol-2-yl)methyl)-1-(2,6-dimethylpyridin-3-yl)-1H-1,2,3-triazole-4-carboxamide], 651 nM. With `Cc1ccc(-n2cc(C(=O)NCc3nnc(-c4ccsc4C)s3)nn2)c(C)n1` [Example 109, 1-(2,6-dimethylpyridin-3-yl)-N-((5-(2-methylthiophen-3-yl)-1,3,4-thiadiazol-2-yl)methyl)-1H-1,2,3-triazole-4-carboxamide] the figure was 29 nM; with `Cc1ccc(-n2cc(C(=O)NCc3nnc(-c4cccc(F)c4C)s3)nn2)c(C)n1` [Example 110, 1-(2,6-dimethylpyridin-3-yl)-N-((5-(3-fluoro-2-methylphenyl)-1,3,4-thiadiazol-2-yl)methyl)-1H-1,2,3-triazole-4-carboxamide], 312 nM. As for `Cc1ccc(-n2cc(C(=O)NCc3nnc(-c4ccc(F)cc4Cl)s3)nn2)c(C)n1` [Example 111, N-((5-(2-chloro-4-fluorophenyl)-1,3,4-thiadiazol-2-yl)methyl)-1-(2,6-dimethylpyridin-3-yl)-1H-1,2,3-triazole-4-carboxamide], the EC50 came to 727 nM. Under `Cc1ccc(-n2cc(C(=O)NCc3nnc(-c4ccccc4Cl)s3)nn2)c(C)n1` [Example 112, N-((5-(2-chlorophenyl)-1,3,4-thiadiazol-2-yl)methyl)-1-(2,6-dimethylpyridin-3-yl)-1H-1,2,3-triazole-4-carboxamide] stands 82 nM. As for `Cc1ccc(-n2cc(C(=O)NCc3nnc(-c4ccc(Cl)cc4)s3)nn2)c(C)n1` [Example 113, N-((5-(4-chlorophenyl)-1,3,4-thiadiazol-2-yl)methyl)-1-(2,6-dimethylpyridin-3-yl)-1H-1,2,3-triazole-4-carboxamide], the EC50 came to 838 nM. Under `Cc1ccc(-n2cc(C(=O)NCc3nnc(-c4ccccc4F)s3)nn2)c(C)n1` [Example 114, 1-(2,6-dimethylpyridin-3-yl)-N-((5-(2-fluorophenyl)-1,3,4-thiadiazol-2-yl)methyl)-1H-1,2,3-triazole-4-carboxamide] stands 37 nM.

On to `Cc1ccc(-n2cc(C(=O)NCc3nnc(-c4ccc(O)cc4)s3)nn2)c(C)n1` [Example 115, 1-(2,6-dimethylpyridin-3-yl)-N-((5-(4-hydroxyphenyl)-1,3,4-thiadiazol-2-yl)methyl)-1H-1,2,3-triazole-4-carboxamide], for which the 50% effective concentration (EC50) is 36 nM. With `Cc1ccc(-n2cc(C(=O)NCc3ccc(-c4ccccc4F)nn3)nn2)c(C)n1` [Example 116, 1-(2,6-dimethylpyridin-3-yl)-N-((6-(2-fluorophenyl)pyridazin-3-yl)methyl)-1H-1,2,3-triazole-4-carboxamide] the figure was 74 nM. With `Cc1ccc(-n2cc(C(=O)NCc3ccc(-c4cccc(F)c4F)nn3)nn2)c(C)n1` [Example 117, N-((6-(2,3-difluorophenyl)pyridazin-3-yl)methyl)-1-(2,6-dimethylpyridin-3-yl)-1H-1,2,3-triazole-4-carboxamide] the figure was 692 nM.

(Values after US20240336608A1, “IL4I1 INHIBITORS AND METHODS OF USE” (Merck Sharp & Dohme LLC, priority 2023, published 2024).)
